Source: EP4699608A1, “COMPOSITION FOR PREVENTING OR TREATING CANCER PAIN” (Maruishi Pharmaceutical Co., Ltd., priority 2023, dated 2024)

Tests used:
[1] = system: mice; test: Spontaneous locomotor activity (Supermex); type: in vivo; conditions: measured for 30 minutes, 1 or 3 hours after administration, compared to control group
Description: Five- to six-week-old male ICR-SPF mice (Japan SLC, Inc.) were divided into 5 groups of 8 mice each: a control group (with administration of distilled water (trade name: Otsuka Distilled Water) manufactured by Otsuka Pharmaceutical Factory, Inc.), two 10 mg/kg compound A administration groups, and two 30 mg/kg compound A administration groups, as shown in Table 2 below. Compound A or distilled water at a dose of 10 mL/kg was orally administered to the mice. One or three hours after the administration of compound A or distilled water, the mice were transferred to a measurement cage, and spontaneous locomotor activity was measured for 30 minutes using Supermex (registered trademark) (Muromachi Kikai Co., Ltd.).

[2] = system: cancer pain model rats; test: Pain threshold in cancer pain model rats (MRMT-1 bone metastasis model, Dynamic Plantar Aesthesiometer); type: in vivo; conditions: for cancer pain threshold: single dose, day 11 after MRMT-1 transplantation, plantar surface of right hind paw, compared to control group (Dunnett's test, 1%); for pain threshold-time area under the curve (AUC): up to 24 hours after administration, compared to morphine 3 mg/kg subcutaneous
Description: Five-week-old female Crl:CD(SD) SPF rats (Charles River Japan) were injected with MRMT-1 cells (rat breast cancer cells) at 3 × 10^4 cells/20 µL/ body into the medullary cavity at the proximal end of the diaphysis of the right tibia to create a bone metastasis model (day 0). On day 10 after the transplantation of the cancer cells (day 10), the rats were divided into 4 groups of 8 rats each: a control group (with administration of distilled water (trade name: Otsuka Distilled Water) manufactured by Otsuka Pharmaceutical Factory, Inc.), a 10 mg/kg compound A administration group, a 30 mg/kg compound A administration group, and a morphine administration group, as shown in Table 1 below. On day 11 after the transplantation of the cancer cells (day 11), each drug was orally or subcutaneously administered to the rats at a dose of 2 mL/kg. The pain threshold (g) of the plantar surface of the right hind paw was measured using a Dynamic Plantar Aesthesiometer (37450, Ugo Basile) under blinded conditions 1, 3, 6, and 24 hours after the administration. The average value of the pain threshold-time area under the curve (AUC) (g·hr) for 24 hours post-administration was determined for each group.

[3] = system: rats; test: Coordinated motor ability (rotarod); type: in vivo; conditions: 10 rotations/min, cutoff 180 seconds, compared to control group
Description: Five- to six-week-old male SD-SPF rats (Japan SLC, Inc.) were used in this experiment. The experimental schedule included training using a rotarod (SN445, Shinano Seisakusyo) for 3 days (6 times a day), starting from 3 days before the day of administration. On the day of administration, pre-values (time to stay on the rotarod before the administration of compound A or distilled water) were measured twice, and the rats that spent 180 seconds or more on the rotarod in either of the two measurements were selected. The rats were divided into 3 groups of 6 rats each: a control group (with administration of distilled water (trade name: Otsuka Distilled Water) manufactured by Otsuka Pharmaceutical Factory, Inc.), a 10 mg/kg compound A administration group, and a 30 mg/kg compound A administration group, as shown in Table 3 below. Compound A or distilled water was orally administered to the rats at a dose of 10 mL/kg, and the time to stay on the rotarod was measured 1, 3, 6, and 24 hours after the administration under the test conditions of 10 rotations/min with a cutoff of 180 seconds.

[4] = system: rats; conditions: at a dose lower than that required to exert an analgesic effect; cited from earlier work

Compound | spontaneous locomotor activity (amount of activity) ([1]; 10 mg/kg oral) | spontaneous locomotor activity (amount of activity) ([1]; 30 mg/kg oral) | cancer pain threshold ([2]; 10 mg/kg oral) | pain threshold-time area under the curve (AUC) ([2]; 10 mg/kg oral) | cancer pain threshold ([2]; 30 mg/kg oral) | pain threshold-time area under the curve (AUC) ([2]; 30 mg/kg oral) | coordinated motor ability (time to stay on the rotarod) ([3]; 10 mg/kg oral, 1, 3, 6 and 24 hours after administration) | coordinated motor ability (time to stay on the rotarod) ([3]; 30 mg/kg oral, 1, 3, 6 and 24 hours after administration) | influences on the central nervous system (coordinated motor ability) [4]
NC1CCN(c2cccc(Cl)n2)CC1 [compound A, 1-(6-chloropyridin-2-yl)piperidin-4-amine] | no significant changes in the amount of activity | no significant changes in the amount of activity | significantly increased | no statistically significant difference | significantly increased | no statistically significant difference | no significant changes in the coordinated motor ability | no significant changes in the coordinated motor ability | –
CC(C)C[C@H](CN)CC(=O)O [pregabalin, Pregabalin] | – | – | – | – | – | – | – | – | inhibits coordinated motor ability
